Results taken from patent US12312333B2, “SK channel positive allosteric modulators” (Chapman University, priority 2021, dated 2025).

What was measured:
Assay type in all cases: cell-based
[1] = molecular target: T1, rat KCa2.2a (UniProt P0DP23+P70604); test: Inside-out patch-clamp potentiation of KCa2.2a channels expressed in HEK293 cells; conditions: for EC50: inside-out patch, HEK293, 0.15 μM Ca2+, current at −90 mV, read-out: EC50 (mean ± SEM, μM) on potentiating KCa2.2a channels; for fold higher potency on KCa2.2a channels compared to CyPPA: ratio of EC50 values vs CyPPA; for KCa2.2a/KCa2.3 subtype selectivity: vs KCa2.1 and KCa3.1
T1 construct: expressed in transfected cells; host or cells: HEK293
Protocol: The impact of adding one substituent group at C4 of the cyclohexane moiety of CyPPA with either electron donating (OH (2a), NH2 (2b), CH2OH (2c), and OCH3 (2d)) or electron-withdrawing groups (F (2e) and NO2 (2f)) was explored. The potency of the newly synthesized compounds compared to the template CyPPA was measured via inside-out patch clamp electrophysiology recordings with KCa2.2a channels heterologously expressed in HEK293 cells (FIG. 1A). […] The responses induced by 10 μM Ca^2+ are considered the maximal currents of the KCa2.2a channels. To evaluate the efficacy (Emax) of compounds on KCa2.2a channels, the current amplitudes at −90 mV in response to the maximal concentration of compounds were normalized to that obtained at 10 μM Ca^2+ (I/Imax (%), FIG. 1C).
(§1) The effect of newly synthesized compounds on the KCa2.x/KCa3.1 channels was investigated as previously described (Nam, Y. W.; et al, Acta Physiol (Oxf) 2020, e13552; Nam, Y. W.; et al. Scientific reports 2018, 8 (1), 10749). Briefly, the rat KCa2.2a, human KCa2.1, human KCa2.3 or human KCa3.1 channels cDNA constructs were either generated in-house or through molecular cloning services (Genscript). The channel cDNAs, along with CaM and GFP, at a ratio of 7:4:2 (ORF ratios), were transfected into HEK293 cells by the calcium-phosphate method. KCa currents were recorded 1-2 days after transfection, with an Axon200B amplifier (Molecular Devices) at room temperature. The resistance of the patch electrodes ranged from 3-5 MΩ. The pipette solution contained (in mM): 140 KCl, 10 Hepes (pH 7.4), 1 MgSO4. The bath solution containing (in mM): 140 KCl, 10 Hepes (pH 7.2), 1 EGTA, 0.1 Dibromo-BAPTA, and 1 HEDTA was mixed with Ca^2+ to obtain the desired free Ca^2+ concentrations, calculated using the software by Chris Patton of Stanford University (https://somapp.ucdmc.ucdavis.edu/pharmacology/bers/maxchelator/webmaxc/webmaxcS.htm). The Ca^2+ concentrations were verified using a Ca^2+ calibration buffer kit (Thermo Fisher Scientific). Briefly, a standard curve was generated using the Ca^2+ buffers from the kit and a fluorescence Ca^2+ indicator. Then, the Ca^2+ concentrations of the bath solution were determined through interpolation on the standard curve.
High resistance seals (>1 GΩ) were formed before inside-out patches were obtained. The seal resistance of inside-out patches was >1 GΩ, when the intracellular face was initially exposed to a zero-Ca^2+ bath solution. Currents were recorded by repetitive 1-s-voltage ramps from −100 mV to +100 mV from a holding potential of 0 mV. The currents were filtered at 2 kHz and digitized at a sampling frequency of 10 kHz. At the end of experiment, the integrity of the patch was examined by switching the bath solution back to the zero-Ca^2+ buffer. Data from patches, which maintained the seal resistance (>1 GΩ) after solution changes, were used for further analysis.
(§2) To measure the effect of CyPPA (Alomone Labs) and newly synthesized compounds, the intracellular face was exposed to bath solutions with 0.15 μM Ca^2+. One minute after switching of bath solutions, ten sweeps with a 1-s interval were recorded at a series of concentrations of compound in the presence of 0.15 μM Ca^2+. The maximal KCa2.x/KCa3.1 current in response to 10 μM Ca^2+ was then recorded.
Patch-clamp recordings were analyzed using Clampfit 10.5 (Molecular Devices LLC) and concentration-response curves were analyzed in GraphPad Prism 9.0.2 (GraphPad Software Inc.). To construct the concentration-dependent potentiation of channel activities by compound, the current amplitudes at −90 mV in response to various concentrations of the compound were normalized to that obtained at a maximal concentration of compound. The normalized currents were plotted as a function of the concentrations of the compound. EC50 values and Hill coefficients were determined by fitting the data points to a standard concentration-response curve (Y=100/(1+(X/EC50)^−Hill)). […]

[2] = molecular target: T2, human KCa2.1 channel (Homo sapiens, UniProt P0DP23+Q92952); test: Inside-out patch-clamp on KCa2.1 channels expressed in HEK293 cells; conditions: for response of KCa2.1 channels: inside-out patch; for Emax: normalized to 10 μM Ca2+
T2 construct: expressed in transfected cells; host or cells: HEK293
Protocol: (§3) The two newly synthesized compounds, 2o and 2q, were tested to determine whether they retained their subtype-selectivity. Neither 2o (FIG. 5A) nor 2q (FIG. 5B) elicited significant responses from the human KCa2.1 channel expressed in HEK293 cells. When compared with the responses from KCa2.2a channels to these two compounds, the differences became even more apparent (FIG. 5C), with the Emax values on KCa2.2a channels at ˜90%, whereas the Emax values on KCa2.1 channels were at ˜0% (FIG. 5D).
as §1, with “The Ca^2+ concentrations were verified using a Ca^2+ calibration buffer kit (Thermo Fisher Scientific).” left out
(§4) High resistance seals (>1 GΩ) were formed before inside-out patches were obtained. […] Currents were recorded by repetitive 1-s-voltage ramps from −100 mV to +100 mV from a holding potential of 0 mV. […]
as §2
(§5) Patch-clamp recordings were analyzed using Clampfit 10.5 (Molecular Devices LLC) and concentration-response curves were analyzed in GraphPad Prism 9.0.2 (GraphPad Software Inc.). […] EC50 values and Hill coefficients were determined by fitting the data points to a standard concentration-response curve (Y=100/(1+(X/EC50)^−Hill)). […]

[3] = molecular target: T3, human KCa3.1 channel (Homo sapiens, UniProt O15554+P0DP23); test: Inside-out patch-clamp on KCa3.1 channels expressed in HEK293 cells; conditions: for response of KCa3.1 channels: inside-out patch; for Emax: normalized to 10 μM Ca2+
T3 construct: expressed in transfected cells; host or cells: HEK293
Protocol: as §3
as §1, with “The Ca^2+ concentrations were verified using a Ca^2+ calibration buffer kit (Thermo Fisher Scientific).” left out
as §4, §2, §5

| Structure (SMILES) | EC50 [1] [µM] | fold higher potency on KCa2.2a channels compared to CyPPA [1] [fold] | KCa2.2a/KCa2.3 subtype selectivity [1] | response of KCa2.1 channels [2] | Emax [2] [%] | response of KCa3.1 channels [3] | Emax [3] [%] |
| --- | --- | --- | --- | --- | --- | --- | --- |
| Cc1cc(Nc2ccc(F)c(Cl)c2)nc(-n2nc(C)cc2C)n1 [Compound 2o, N-(3-Chloro-4-fluorophenyl)-2-(3,5-dimethyl-1H-pyrazol-1-yl)-6-methyl-pyrimidin-4-amine] | 0.99 ± 0.079 | ~7 | retained the KCa2.2a/KCa2.3 subtype selectivity | Lack of response | ~0 | mostly insensitive | 26.1 ± 7.67 |
| Cc1cc(Nc2cc(Cl)ccc2F)nc(-n2nc(C)cc2C)n1 [Compound 2q, N-(5-Chloro-2-fluorophenyl)-2-(3,5-dimethyl-1H-pyrazol-1-yl)-6-methylpyrimidin-4-amine] | 0.64 ± 0.051 | ~10 | retained the KCa2.2a/KCa2.3 subtype selectivity | Lack of response | ~0 | mostly insensitive | -0.79 ± 1.19 |
